What all share (type): cell-based, human
In experiment [1] the test system is peptide-pulsed A24-LCL cells. Briefly: IFN-gamma ELISPOT assay (positive wells). To be noted: HLA-A*2402, 9-mer peptides derived from INHBB; positive/total wells. Put shortly:
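PBMC-derived DCs from HLA-A*2402 and/or A*0201 donors, pulsed with 20 micro g/ml peptide plus 3 micro g/ml beta 2-microglobulin, stimulated autologous CD8+ T cells three times (days 0, 7, 14). On day 21, responders were tested against peptide-pulsed A24-LCL or T2 cells by IFN-gamma ELISPOT. Values are reported as positive wells/wells tested; CTL lines confirmed by ELISA.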

For experiment [2], the system named is CD8+ T cells (HLA-A*0201 donors). Briefly: In vitro CTL induction with peptide-pulsed DCs (positive donor number). To be noted: HLA-A*0201, 9-mer peptides derived from INHBB; positive/total donors. The procedure, abridged:
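Monocyte-derived DCs (GM-CSF/IL-4, 7 days) pulsed with 20 μg/ml peptide plus β2-microglobulin, MMC-inactivated, co-cultured 1:20 with autologous CD8+ T cells with IL-7, then IL-2; restimulated days 7 and 14. CTL activity tested against peptide-pulsed T2 cells on day 21; value = positive donors/total donors.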

The subject of another experiment is peptide-pulsed T2 cells. Briefly: IFN-gamma ELISPOT assay (positive wells). Conditions: HLA-A*0201, 9-mer peptides derived from INHBB; positive/total wells. Put shortly: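 CD8+ T cells from HLA-A*2402 and/or HLA-A*0201 donors were stimulated 1:20 with autologous monocyte-derived DCs pulsed with 20 µg/ml peptide plus β2-microglobulin, in IL-7, with IL-2 added, restimulated on days 7 and 14. On day 21, IFN-γ ELISPOT against peptide-pulsed T2 or A24-LCL cells (1×10^4/well) scored wells as positive, with CTL lines confirmed by ELISA.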

Experiment [3] deals with CD8+ T cells (HLA-A*2402 donors). In words: In vitro CTL induction with peptide-pulsed DCs (positive donor number). Conditions: HLA-A*2402, 9-mer peptides derived from INHBB; positive/total donors. The procedure, abridged:
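Autologous CD8+ T cells from HLA-A*2402 and/or A*0201 donors stimulated with MMC-inactivated monocyte-derived DCs pulsed with 20 μg/ml peptide, at 1:20 DC:T with IL-7, then IL-2 (20 IU/ml); restimulated days 7 and 14. CTL tested day 21 on peptide-pulsed A24-LCL or T2 cells; reported as positive/total donors.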

As for VQCDSCQEL, the positive well number in experiment [1] is on record as 0/8; with peptide-pulsed T2 cells, 1/8. Moreover, the positive donor number in experiment [2] and in experiment [3] was 0/1 each time.

For the origin of these results see patent publication US8759481B2, “Peptide vaccines for cancers expressing tumor-associated antigens” (Oncotherapy Science, Inc., priority 2007, dated 2014).
